Reference: the supplement of paper PMC6045584
± gives the standard deviation of the averaged measurements.

Legend:
[1] = compound: O=c1[nH]cc(F)c(=O)[nH]1 [FLUOROURACIL]; experiment: surviving fraction relative to DMSO-only wells; higher = less growth inhibition; conditions: exposure time: 5 days
How it was run: (§1)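 Log-phase tumour cell lines, 250–500 cells per well in 384-well plates, received inhibitors at 0.5, 1, 5, 10, 50, 100, 500 and 1000 nM continuously for five days, starting 24 hours after seeding. Viability was quantified with CellTiter-Glo luminescence and normalised to the median of DMSO-only wells to give surviving fraction. Three screens were run per line, and a line stayed in only with replicate Pearson r >0.7 and median Z' >0.3.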

[2] = compound: CN(C)CC[C@H](CSc1ccccc1)Nc1ccc(S(=O)(=O)NC(=O)c2ccc(N3CCN(Cc4ccccc4-c4ccc(Cl)cc4)CC3)cc2)cc1[N+](=O)[O-] [ABT-737]; experiment: as above; conditions: exposure time: 5 days
How it was run: as §1

Test System	surviving fraction ([1]; 0.5 nM)	surviving fraction ([1]; 1 nM)	surviving fraction ([1]; 5 nM)	surviving fraction ([1]; 10 nM)	surviving fraction ([1]; 50 nM)	surviving fraction ([1]; 100 nM)	surviving fraction ([1]; 500 nM)	surviving fraction ([1]; 1000 nM)	surviving fraction ([2]; 0.5 nM)	surviving fraction ([2]; 1 nM)	surviving fraction ([2]; 5 nM)	surviving fraction ([2]; 10 nM)	surviving fraction ([2]; 50 nM)	surviving fraction ([2]; 100 nM)	surviving fraction ([2]; 500 nM)	surviving fraction ([2]; 1000 nM)
22RV1 PROSTATE	1.07 ± 0.11	0.936 ± 0.068	1.1 ± 0.11	0.946 ± 0.13	1.09 ± 0.053	1.104 ± 0.011	0.957 ± 0.15	0.705 ± 0.18	0.997 ± 0.07	1.13 ± 0.22	1.03 ± 0.063	0.995 ± 0.079	1.07 ± 0.086	1.03 ± 0.13	1.1 ± 0.042	0.96 ± 0.097
93VU HEADNECK	1.01 ± 0.11	1 ± 0.052	1.07 ± 0.089	1.05 ± 0.11	0.884 ± 0.082	0.884 ± 0.0072	0.665 ± 0.062	0.882 ± 0.063	1.146 ± 0.0083	1.09 ± 0.057	1.21 ± 0.19	1.16 ± 0.031	1.23 ± 0.069	1.17 ± 0.09	1.12 ± 0.09	1.04 ± 0.074
143B BONE	1.12 ± 0.15	1.11 ± 0.079	1.14 ± 0.11	1.11 ± 0.094	1.14 ± 0.17	1.12 ± 0.13	1.1 ± 0.12	0.929 ± 0.029	1.08 ± 0.042	1.09 ± 0.027	1.14 ± 0.092	1.11 ± 0.071	1.13 ± 0.054	1.115 ± 0.0057	1.12 ± 0.037	1.14 ± 0.064
A549 LUNG	1.093 ± 0.0015	1.055 ± 0.007	1.051 ± 0.001	1.04 ± 0.032	1.11 ± 0.019	1.029 ± 0.0045	1.05 ± 0.025	0.554 ± 0.046	1.06 ± 0.012	1.05 ± 0.022	1.07 ± 0.023	1.06 ± 0.03	1.07 ± 0.039	1.09 ± 0.039	1.12 ± 0.044	1.05 ± 0.053
ASKA SYNOVIAL	1.1 ± 0.072	1.06 ± 0.081	1.17 ± 0.021	1.04 ± 0.024	1.01 ± 0.05	0.937 ± 0.066	0.919 ± 0.068	0.775 ± 0.042	1.15 ± 0.031	1.19 ± 0.044	1.2 ± 0.027	1.16 ± 0.047	1.1 ± 0.05	1.11 ± 0.076	0.914 ± 0.084	0.79 ± 0.066
BT20 BREAST	1.15 ± 0.11	1.18 ± 0.11	1.25 ± 0.058	1.16 ± 0.07	0.844 ± 0.079	0.836 ± 0.049	1.09 ± 0.049	0.929 ± 0.1	1.2 ± 0.061	1.19 ± 0.089	1.15 ± 0.06	1.26 ± 0.06	1.14 ± 0.14	1.18 ± 0.13	1.14 ± 0.043	1.07 ± 0.064
BT549 BREAST	1.07 ± 0.13	1.06 ± 0.024	1.05 ± 0.21	0.95 ± 0.12	0.8 ± 0.06	0.843 ± 0.15	0.872 ± 0.084	0.585 ± 0.071	0.996 ± 0.018	0.867 ± 0.047	1.12 ± 0.075	0.782 ± 0.043	1.12 ± 0.029	0.771 ± 0.095	1.04 ± 0.16	0.841 ± 0.097
C33A CERVIX	1 ± 0.086	1.12 ± 0.043	1.08 ± 0.11	1.16 ± 0.05	1.1 ± 0.055	1.1 ± 0.06	1.02 ± 0.085	1.28 ± 0.055	0.932 ± 0.1	0.973 ± 0.088	1.08 ± 0.013	1.08 ± 0.12	1.02 ± 0.14	1.1 ± 0.09	0.927 ± 0.11	1.04 ± 0.15
CADOES1 SOFT TISSUE	0.969 ± 0.035	0.925 ± 0.057	0.907 ± 0.13	0.963 ± 0.097	0.968 ± 0.03	0.912 ± 0.098	0.905 ± 0.055	0.775 ± 0.081	0.92 ± 0.1	0.85 ± 0.18	0.915 ± 0.1	0.874 ± 0.039	0.748 ± 0.081	0.679 ± 0.068	0.679 ± 0.015	0.689 ± 0.049
CAL51 BREAST	0.931 ± 0.016	0.918 ± 0.09	0.944 ± 0.048	0.971 ± 0.016	1 ± 0.057	0.904 ± 0.017	0.915 ± 0.015	0.763 ± 0.018	1.03 ± 0.062	0.941 ± 0.066	1.07 ± 0.031	1.04 ± 0.02	1.04 ± 0.021	1.08 ± 0.086	1.09 ± 0.017	0.959 ± 0.048
